Assay results as given in the METLIN SMRT retention time set (Domingo-Almenara et al. 2019).

Test: gradient 5% acetonitrile 3 min, to 50% in 2 min, to 85% in 15 min, held 3 min, 100 µL/min
Details: column: Zorbax Extend-C18 2.1 x 50 mm; eluents: water / acetonitrile, 0.1% formic acid
How it was run: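 Retention times come from adduct peaks that were picked computationally and then checked by hand. The standards, pure and pooled in mixtures of ~100 molecules, were run on a Zorbax Extend-C18 column (2.1 × 50 mm, 1.8 μm) at 100 μL/min with water and acetonitrile, each with 0.1% formic acid. Detection was by quadrupole time-of-flight mass spectrometry in positive and negative ionization mode, with a dead volume of 40 μL and a dwell volume of 900 μL.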

| Structure (SMILES) | RP-LC retention time |
| --- | --- |
| O=C(COc1ccccc1F)NCC1(c2cccs2)CCOCC1 | 790 s |
| Cc1cc(S(=O)(=O)Nc2cccn3cnnc23)ccc1F | 686 s |
| COc1cccc(/C=C/c2nccc3ccccc23)c1OC | 768 s |
| CCC(=O)N1CCCn2nc(-c3cccnc3)cc2C1 | 562 s |
| CCN(CC)S(=O)(=O)N1CCC(C(=O)N2CCN(Cc3noc4ccccc34)CC2)CC1 | 708 s |
| Cc1c(Cl)cccc1NC(=O)N1C[C@H](c2nc(-c3ccncc3)no2)[C@@H](C)C1 | 827 s |
| COC(=O)CNC(=O)N1CCC(N2CCN(Cc3ccc(C)cc3)C(=O)C2=O)CC1 | 644 s |
| c1ccc(Nc2c(-c3ccccc3)nc3cnccn23)cc1 | 826 s |
| CCn1nccc1-c1cccc(-c2noc(-c3ccc(F)cc3)n2)c1 | 1240 s |
| COc1cc(NC(=O)Nc2nccn(-c3cccc(Cl)c3)c2=O)cc(OC)c1 | 978 s |
| CCc1ccc(-c2nc(-c3ccc4nnc(CC)n4c3)no2)cc1 | 1140 s |
| Cc1cc(NC(=O)CSc2c(-c3ccccc3)[nH]c3ccccc23)no1 | 846 s |
| O=C(c1ccc2c(c1)OCO2)N1CCC2(CC1)N=C(c1ccc(Cl)cc1)NO2 | 956 s |
| Cc1noc(C)c1Cc1c(C(=O)N2CCC3(CCC3O)CC2)noc1C (configuration not stated) | 680 s |
| O=C(CCC1CCCN(S(=O)(=O)c2ccccc2)C1)NCc1ccc(Cl)cc1 (configuration not stated) | 979 s |
| Cc1noc(C)c1-c1ccc(S(=O)(=O)NCc2ccco2)cc1 | 842 s |
| Cc1nc(SCC(=O)Nc2ccc(Cl)cc2C(F)(F)F)cc(-c2ccccn2)n1 | 1080 s |
| Clc1ccc(-c2nc3cnccn3c2Nc2ccc3c(c2)OCCO3)cc1 | 891 s |
| CCOC(=O)C1CCN(C(=O)c2nc(N(CC)CC)c3c(C)cc(C)nc3n2)CC1 | 657 s |

| Structure (SMILES) | RP-LC retention time |
| --- | --- |
| Cc1nn(CC(=O)Nc2ccccc2C(F)(F)F)c(C)c1[N+](=O)[O-] | 792 s |
| O=C(CN1C(=O)CSc2ccc(C(=O)N3CCCCC3)cc21)NCCCN1CCCCC1 | 610 s |
| O=C(NCCN1CCCCCC1)c1csc(-c2ccnc(N3CCOCC3)c2)n1 | 569 s |
| COc1cc(-c2nc3ncccn3c2Nc2ccc(C)cc2C)ccc1O | 682 s |
| COC(=O)c1c(C)c(C(=O)C(C)N(CC(C)C)C(=O)c2ccc(Cl)cc2)c(C)n1C (configuration not stated) | 1080 s |
| Cc1ccc(NC(=O)N2C[C@@H]3C[C@H](NS(=O)(=O)c4ccccc4)[C@H]2C3)c(C)c1 | 832 s |
| Cc1nc(-c2cccc(NC(=O)c3ccc(-n4ccnc4C)nn3)c2)cs1 | 581 s |
| CS(=O)(=O)N1CCC(C(=O)Nc2nnc(-c3ccc4c(c3)OCCO4)o2)CC1 | 646 s |
| COc1cccc(C(=O)Nc2c(-c3ccccc3)nc3ccccn23)c1OC | 666 s |
| Cc1noc(C2(NC(=O)c3ccc[nH]c3=O)CCCCC2)n1 | 621 s |
| Cc1noc(C)c1C1CCCN1C(=O)Cc1cccc(Cl)c1 (configuration not stated) | 810 s |
| CC(n1cc(C[C@H](N)C(=O)O)c2ccccc21)n1cc(C[C@H](N)C(=O)O)c2ccccc21 | 628 s |
| CCOC(=O)Cn1c(=O)c2c(nc3n2CC(C)CN3c2ccc(OC)cc2)n(C)c1=O (configuration not stated) | 888 s |
| COc1ccc(NC(=O)c2cc(C(C)C)n(-c3nc4ccccc4s3)n2)cc1OC | 1200 s |
| CC(C)CNC(=O)Nc1ccc2c(c1)CCN2S(C)(=O)=O | 733 s |
| COc1ccc(NC(=O)Cn2cnc3nc4c(cc3c2=O)CCCC4)cc1OC | 676 s |
| Cc1ccc(Cn2nc3ccc(S(=O)(=O)N4CCc5ccccc5C4)cn3c2=O)cc1 | 1050 s |
| Cc1ccccc1-c1nc(-c2ccc3c(c2)oc(=O)n3C)no1 | 1110 s |
